How the values were obtained:
[1] = test system: C9orf72 exon 1b transcripts lacking r(G4C2)exp; assay: C9orf72 exon 1b RT-qPCR in patient-derived LCLs; assay type: cell-based, human; conditions: any concentration
Method: (§1) Measuring Levels of C9orf72 and C9orf72 Variants by RT-qPCR. LCLs were seeded in 6-well plate (˜10^6 cells in 2 mL of growth medium) and incubated overnight at 37° C. Cells were then treated with various concentrations of compound for 24 h or with G4C2-ASO and Control-ASO (100 nM), delivered by transfection with Lipofectamine RNAiMax. RNA was extracted as described above and the expression of C9orf72 variants was determined by RT-qPCR. […] For compound treatment well, medium change was performed with fresh compound every 3-4 days. RNA was extracted as described above and the expression of C9orf72 variants was determined by RT-qPCR.

Poly(GP) = Poly(GP) sandwich immunoassay in brain of +/+PWR500 mice; assay type: in vivo, mouse
Method: Therapeutic Efficacy in a c9ALS/FD mouse model. All animal studies were completed as approved by the Scripps Florida Institutional Animal Care and Use Committee. A total of 24 mice (12+/+PWR500 [7 Male and 5 Female] and 12 WT [6 Male and 6 Female]) mice, age- and gender-matched and ranging in age from 18-22 weeks old were used in therapeutic efficacy studies (Table 6). Mice were anesthetized by intraperitoneal (i.p.) injection of 10 mg/mL Ketamine:1 mg/mL Xylazine solution. Intracerebroventricular (ICV) stereotactic injections of 10 μL of 7 (33 nmol) were administered into the right ventricle using the following coordinates: 0.2 mm posterior and 1.0 mm lateral to the right from the bregma and 3 mm deep. Mice were treated with 7 or vehicle consisting of 1% DMSO in Saline. Three weeks post-treatment, mice were euthanized, and tissue was harvested for study.
Measuring Poly(GP) by MSD. Postmortem brain tissue was harvested and sliced sagittal at the midline. The left hemisphere was frozen for protein and RNA analysis. The left hemisphere of each brain was homogenized in 300 μL of ice-cold Tris-EDTA buffer with 2× protease inhibitors. […] Protein concentrations were measured by BCA assay (Pierce Biotechnology) and Poly(GP) was measured as described above. Statistical analysis was measured using an unpaired t-test with Welch's correction.

[2] = test system: C9orf72 intron 1 harboring r(G4C2)exp; assay: C9orf72 intron 1 RT-qPCR in patient-derived LCLs; assay type: cell-based, human; conditions: disease-affected LCLs
Method: as §1

r(G4C2)4 = assay: 1D NMR imino proton monitoring; assay type: binding
Method: (§2) Preparation of MNR Samples. RNA constructs were purchased from GE Dharmacon, Inc. After deprotection and desalting, RNAs were dissolved in buffer comprising 10 mM sodium phosphates and 100 mM LiCl at pH 7.0 and reannealed by heating to 95° C. for 4 min followed by cooling to room temperature. Solvent consisted of H2O, to which 20 μL of D2O was added to provide a lock signal. Final concentrations of RNA were 100 μM for 1D NMR spectroscopy and 400 μM of RNA for 2D NMR spectroscopy. Dimeric derivatives 2 and 3 were dissolved in DMSO-d6 to 10 mM concentrations.
(§3) NMR Spectroscopy. NMR spectra were acquired on samples in Shigemi tubes using Bruker Avance 600 and 700 MHz spectrometers equipped with cryoprobes. 1D spectra were recorded on free form RNA, to which 2 and 3 was added to final compound/RNA molar ratios of 0.5 and 1.0. 2D spectra were acquired with 400 ms mixing times on samples containing 3 at 1.0 compound/RNA molar ratio. In 1D and 2D NMR spectra, WATERGATE and excitation pulse sequences were used to suppress the water signal, respectively (53-55). Proton chemical shifts were referenced internally to 4,4-dimethyl-4-silapentane-1-sulfonic acid (DSS, 0.1 mM). 1D spectra were processed using MestreNOVA software. 2D spectra were processed using NMRPipe and assigned using SPARKY (56).

r(G2C2)4 = assay: 1D NMR imino proton monitoring; assay type: binding; conditions: hairpin with fully paired stem
Method: as §2, §3

r(G4C2)8 = assay: In vitro Chem-CLIP and C-Chem-CLIP; assay type: binding; conditions: constant 4 (500 nM), increasing concentrations of competitor
Method: In vitro Chemical Cross-linking and Isolation by Pull-Down (Chem-CLIP) and Competitive Chemical Cross-linking and Isolation by Pull-Down (C-Chem-CLIP): Approximately 10,000 counts of ^32P 5′-end labeled r(G4C2)8 was folded in 1×Folding Buffer at 95° C. for 1 min. After cooling to room temperature, the Chem-CLIP probe at the desired concentrations (5, 10, 100, 500, 1000, 5000, 10000 nM) was added, and the samples were incubated at 37° C. for 18 h. For C-Chem-CLIP studies, the parent compound (10, 100, 500, 1000, 5000, 10000 nM) was incubated with RNA for 1 h before addition of the Chem-CLIP probe (500 nM).
Cross-linked RNAs were clicked to biotin […] azide (10 μL of a 5 mM stock solution in DMSO) by incubating in a solution containing 25 mM HEPES (pH 7.1), 250 mM sodium ascorbate, 10 mM CuSO4, and 50 mM THPTA (tris-hydroxypropyltriazolylmethylamine) for 6 h at 37° C. A 300 μL of streptavidin-agarose beads (Sigma-Aldrich) was washed three times and then resuspended in 1×PBS. An aliquot (20 μL) of the slurry was added to each sample, which was incubated for 1 h at room temperature. The samples were centrifuged and the supernatant containing unbound RNA was transferred to an unused tube. The beads were then washed three times with 1×PBS supplemented with 0.10% (v/v) Tween-20 and centrifuged, with each wash supernatant being added to the tube containing unbound RNA. The amounts of radioactivity in the supernatant and associated with the beads were quantified with a Beckman Coulter LS6500 Liquid Scintillation Counter.

Compound | C9orf72 transcripts that lack r(G4C2)exp (exon 1b) [1] | reduction of Poly(GP) (Poly(GP); 33 nmol ICV, three weeks, brain) [%] | actin protein expression (control) (Poly(GP); +/+PWR500 or WT mice) | C9orf72 intron 1 levels [2] | complex formation, imino proton region 1D NMR (r(G4C2)4) | changes in 1D NMR spectrum upon addition of compound (r(G2C2)4) | C-Chem-CLIP, RNA pulled down by 4 (r(G4C2)8)
CCOC(=O)C1=C(Nc2ccccc2)S/C(=C\c2ccc(OCCOCCOCCOCCNC(=O)CCC(=O)N(CCOCCOCCOc3ccc4[nH]c5c(C)c6ccncc6c(C)c5c4c3)CCOCCOCCOc3ccc4[nH]c5c(C)c6ccncc6c(C)c5c4c3)c(O)c2)C1=O [Compound 7] | no decrease | 74±24 | no decrease | – | – | – | –
Cc1c2ccncc2c(C)c2c1[nH]c1ccc(OCCOCCOCCNCCOCCOCCOc3ccc4[nH]c5c(C)c6ccncc6c(C)c5c4c3)cc12 [Compound 3] | – | – | – | no effect | verified | no changes were observed | reduced the percentage of RNA pulled down in a dose dependent fashion

— patent US20230381170A1, “METHOD FOR TREATING ALS/FTD THROUGH DEGRADATION OF RNA REPEAT EXPANSION” (University of Florida Research Foundation, Incorporated, priority 2020, published 2023)
